Columns and labels:
[1] = test system: NCI-H460; experiment: NCI SRB cytotoxicity, non-small cell lung NCI-H460; type: cell-based; details: Homo sapiens, 48 h exposure
Experimental: (§1) The pyrazolochalcones (7e, 8e, 10e, 11e, 12e, 13e and 8f) have been tested against fifty nine human tumor cell lines derived from nine cancer types (leukemia, non-small cell lung cancer, colon cancer, CNS cancer, melanoma, ovarian cancer, renal cancer, prostate cancer and breast cancer) as per the NCI protocol. For each compound, dose response curves for individual cell lines have been measured at a minimum of five concentrations at 10 fold dilutions. A protocol of 48 h continuous drug exposure has been used, and a sulforhodamine B (SRB) protein assay has been used to estimate cell viability or growth. The concentration for 50% cell growth inhibition (GI50), 50% cell death (LC50, 50% growth) and total cell growth inhibition (TGI, 0% growth) values were tabulated (Table-1). DMSO was used as control to calculate the values of GI50, LC50 and TGI. The compounds 7e, 8e, 10e, 11e, 12e, 13e and 8f has been evaluated for their in vitro cytotoxicity in […] cell lines from nine human cancer types of leukemia (K-562, SR), non-small cell lung (Hop-62, NCI-H226, NCI-H522), colon (HCT-116, HCT-15, HCC-2998), CNS (SF-539), melanoma (SK-MEL-5, UACC-62, M14), ovarian (IGROV1), renal (A498), prostate (PC3) and breast (BT-549, MDA-MB-435, HS578T) origin. The results are expressed as percent of cell growth determined relative to that of untreated control cells (Table 2).

[2] = test system: Renal; experiment: NCI SRB cytotoxicity, renal panel average; type: cell-based, human; details: average of cell lines
Experimental: as §1
(§2) Each cancer type represents the average of six to eight different cancer cell lines.

[3] = test system: Ovarian; experiment: NCI SRB cytotoxicity, ovarian panel average; type: cell-based, human; details: average of cell lines
Experimental: as §1, §2

[4] = test system: NCI-H226; experiment: NCI SRB cytotoxicity, non-small cell lung NCI-H226; type: cell-based; details: Homo sapiens, 48 h exposure
Experimental: as §1

[5] = test system: HCC-2998; experiment: NCI SRB cytotoxicity, colon HCC-2998; type: cell-based; details: Homo sapiens, 48 h exposure
Experimental: as §1

[6] = test system: SW-620; experiment: NCI SRB cytotoxicity, colon SW-620; type: cell-based; details: Homo sapiens, 48 h exposure
Experimental: as §1

[7] = test system: SK-MEL-5; experiment: NCI SRB cytotoxicity, melanoma SK-MEL-5; type: cell-based; details: Homo sapiens, 48 h exposure
Experimental: as §1

[8] = test system: T-47D; experiment: NCI SRB cytotoxicity, breast T-47D; type: cell-based; details: Homo sapiens, T47D, 48 h exposure
Experimental: as §1

[9] = test system: Leukemia; experiment: NCI SRB cytotoxicity, leukemia panel average; type: cell-based, human; details: average of cell lines
Experimental: as §1, §2

[10] = test system: OVCAR-3; experiment: NCI SRB cytotoxicity, ovarian OVCAR-3; type: cell-based; details: Homo sapiens, 48 h exposure
Experimental: as §1

[11] = test system: SR; experiment: NCI SRB cytotoxicity, leukemia SR; type: cell-based; details: Homo sapiens, 48 h exposure
Experimental: as §1

[12] = test system: MDA-MB-231/ATCC; experiment: NCI SRB cytotoxicity, breast MDA-MB-231/ATCC; type: cell-based; details: Homo sapiens, 48 h exposure
Experimental: as §1

[13] = test system: PC-3; experiment: NCI SRB cytotoxicity, prostate PC-3; type: cell-based; details: Homo sapiens, 48 h exposure
Experimental: as §1

[14] = test system: SK-MEL-28; experiment: NCI SRB cytotoxicity, melanoma SK-MEL-28; type: cell-based; details: Homo sapiens, 48 h exposure
Experimental: as §1

[15] = test system: HL-60(TB); experiment: NCI SRB cytotoxicity, leukemia HL-60(TB); type: cell-based; details: Homo sapiens, 48 h exposure
Experimental: as §1

[16] = test system: TK-10; experiment: NCI SRB cytotoxicity, renal TK-10; type: cell-based; details: Homo sapiens, 48 h exposure
Experimental: as §1

[17] = test system: HCT-15; experiment: NCI SRB cytotoxicity, colon HCT-15; type: cell-based; details: Homo sapiens, 48 h exposure
Experimental: as §1

[18] = test system: OVCAR-5; experiment: NCI SRB cytotoxicity, ovarian OVCAR-5; type: cell-based; details: Homo sapiens, 48 h exposure
Experimental: as §1

[19] = test system: MDA-MB-435; experiment: NCI SRB cytotoxicity, breast panel MDA-MB-435; type: cell-based; details: Homo sapiens, 48 h exposure
Experimental: as §1

[20] = test system: M14; experiment: NCI SRB cytotoxicity, melanoma M14; type: cell-based; details: Homo sapiens, 48 h exposure
Experimental: as §1

[21] = test system: CCRF-CEM; experiment: NCI SRB cytotoxicity, leukemia CCRF-CEM; type: cell-based; details: Homo sapiens, 48 h exposure
Experimental: as §1

[22] = test system: Prostate; experiment: NCI SRB cytotoxicity, prostate panel average; type: cell-based, human; details: average of cell lines
Experimental: as §1, §2

[23] = test system: UACC-257; experiment: NCI SRB cytotoxicity, melanoma UACC-257; type: cell-based; details: Homo sapiens, 48 h exposure
Experimental: as §1

[24] = test system: RXF 393; experiment: NCI SRB cytotoxicity, renal RXF 393; type: cell-based; details: Homo sapiens, 48 h exposure
Experimental: as §1

[25] = test system: COLO-205; experiment: NCI SRB cytotoxicity, colon COLO-205; type: cell-based; details: Homo sapiens, 48 h exposure
Experimental: as §1

[26] = test system: HS 578T; experiment: NCI SRB cytotoxicity, breast HS 578T; type: cell-based; details: Homo sapiens, 48 h exposure
Experimental: as §1

[27] = test system: SK-OV-3; experiment: NCI SRB cytotoxicity, ovarian SK-OV-3; type: cell-based; details: Homo sapiens, 48 h exposure
Experimental: as §1

[28] = test system: NCI-H23; experiment: NCI SRB cytotoxicity, non-small cell lung NCI-H23; type: cell-based; details: Homo sapiens, 48 h exposure
Experimental: as §1

[29] = test system: 786-0; experiment: NCI SRB cytotoxicity, renal 786-0; type: cell-based; details: Homo sapiens, 48 h exposure
Experimental: as §1

[30] = test system: MOLT-4; experiment: NCI SRB cytotoxicity, leukemia MOLT-4; type: cell-based; details: Homo sapiens, 48 h exposure
Experimental: as §1

[31] = test system: A498; experiment: NCI SRB cytotoxicity, renal A498; type: cell-based; details: Homo sapiens, 48 h exposure
Experimental: as §1

[32] = test system: SF-268; experiment: NCI SRB cytotoxicity, CNS SF-268; type: cell-based; details: Homo sapiens, 48 h exposure
Experimental: as §1

[33] = test system: ACHN; experiment: NCI SRB cytotoxicity, renal ACHN; type: cell-based; details: Homo sapiens, 48 h exposure
Experimental: as §1

[34] = test system: Breast; experiment: NCI SRB cytotoxicity, breast panel average; type: cell-based, human; details: average of cell lines
Experimental: as §1, §2

[35] = test system: CAKI-1; experiment: NCI SRB cytotoxicity, renal CAKI-1; type: cell-based; details: Homo sapiens, 48 h exposure
Experimental: as §1

[36] = test system: MCF7; experiment: NCI SRB cytotoxicity, breast MCF7; type: cell-based; details: Homo sapiens, 48 h exposure
Experimental: as §1

[37] = test system: NCI-H522; experiment: NCI SRB cytotoxicity, non-small cell lung NCI-H522; type: cell-based; details: Homo sapiens, 48 h exposure
Experimental: as §1

[38] = test system: BT-549; experiment: NCI SRB cytotoxicity, breast BT-549; type: cell-based; details: Homo sapiens, 48 h exposure
Experimental: as §1

[39] = test system: SNB-75; experiment: NCI SRB cytotoxicity, CNS SNB-75; type: cell-based; details: Homo sapiens, 48 h exposure
Experimental: as §1

[40] = test system: A549/ATCC; experiment: NCI SRB cytotoxicity, non-small cell lung A549/ATCC; type: cell-based; details: Homo sapiens, 48 h exposure
Experimental: as §1

[41] = Homo sapiens, read-out: Log10 GI50 (concentration in mol/L causing 50% growth inhibition) (converted)
[42] = Homo sapiens, read-out: Log10 LC50 (concentration in mol/L causing 50% cell death) (converted)

## COc1ccc(C(=O)/C=C/c2cc(-c3cc(OC)c(OC)c(OC)c3)n[nH]2)cc1 [7e, (E)-1-(4-methoxyphenyl)-3-(3-(3,4,5-trimethoxyphenyl)-1H-pyrazol-5-yl)prop-2-en-1-one]
[1]
  GI50: 1720 nM
[2]; [41]
  GI50: 1820 nM
[2]; [42]
  CC50: 18.2 µM
[2]
  Log10 TGI (concentration in mol/L causing total growth inhibition (0% growth)): −5.43 mol/L
[3]; [41]
  GI50: 2400 nM
[3]; [42]
  CC50: 47.9 µM
[3]
  Log10 TGI (concentration in mol/L causing total growth inhibition (0% growth)): −5.15 mol/L
[4]
  GI50: 1890 nM
[5]
  GI50: 1780 nM
[6]
  GI50: 1620 nM
[7]
  GI50: 1720 nM
[8]
  GI50: 2310 nM
[9]; [41]
  GI50: 1200 nM
[9]; [42]
  CC50: 0.0001 mol/L
[9]
  Log10 TGI (concentration in mol/L causing total growth inhibition (0% growth)): −5.18 mol/L
[10]
  GI50: 1740 nM
[11]
  GI50: 340 nM
[12]
  GI50: 1880 nM
[13]
  GI50: 1510 nM
[14]
  GI50: 2120 nM
[15]
  GI50: 2160 nM
[16]
  GI50: 2220 nM
[17]
  GI50: 1580 nM
[18]
  GI50: 1880 nM
[19]
  GI50: 1290 nM
[20]
  GI50: 2200 nM
[21]
  GI50: 1420 nM
[22]; [41]
  GI50: 1480 nM
[22]
  Log10 TGI (concentration in mol/L causing total growth inhibition (0% growth)): −5.55 mol/L
[23]
  GI50: 1750 nM
[24]
  GI50: 1270 nM
[25]
  GI50: 1730 nM
[26]
  GI50: 3.6 µM
[27]
  GI50: 3.99 µM
[28]
  GI50: 3.04 µM
[29]
  GI50: 1950 nM
[30]
  GI50: 2670 nM
[31]
  GI50: 1740 nM
[32]
  GI50: 1990 nM
[33]
  GI50: 1960 nM
[34]; [41]
  GI50: 1910 nM
[34]; [42]
  CC50: 33.9 µM
[34]
  Log10 TGI (concentration in mol/L causing total growth inhibition (0% growth)): −5.08 mol/L
[35]
  GI50: 2340 nM
[36]
  GI50: 1150 nM
[37]
  GI50: 1470 nM
[38]
  GI50: 1860 nM
[39]
  GI50: 1490 nM
[40]
  GI50: 2270 nM
